The values that follow come from ChEMBL document CHEMBL4665919, “Novel Tricyclic Pyroglutamide Derivatives as Potent RORγt Inverse Agonists Identified using a Virtual Screening Approach” (ACS Med Chem Lett, 2020).

The target in data set [1] is T1, Oxysterols receptor LXR-beta (Homo sapiens, UniProt P55055).
T1 sequence (P55055 whole entry): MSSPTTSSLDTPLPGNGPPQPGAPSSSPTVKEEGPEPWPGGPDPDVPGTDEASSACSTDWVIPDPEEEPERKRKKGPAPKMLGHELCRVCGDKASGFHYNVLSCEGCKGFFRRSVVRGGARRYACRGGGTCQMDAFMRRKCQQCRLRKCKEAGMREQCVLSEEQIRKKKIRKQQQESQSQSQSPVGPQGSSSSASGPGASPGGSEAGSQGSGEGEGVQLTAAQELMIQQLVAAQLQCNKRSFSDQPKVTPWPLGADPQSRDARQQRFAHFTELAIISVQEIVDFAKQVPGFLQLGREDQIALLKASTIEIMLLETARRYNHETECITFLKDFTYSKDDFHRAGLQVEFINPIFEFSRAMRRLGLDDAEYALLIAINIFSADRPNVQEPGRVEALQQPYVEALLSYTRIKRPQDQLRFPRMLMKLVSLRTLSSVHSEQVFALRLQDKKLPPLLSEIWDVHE
The experiment in a line: Inverse agonist activity at LXRbeta (unknown origin).

In a further data set the target is Cytochrome P450 3A4 (Homo sapiens, UniProt P08684). Briefly: Inhibition of CYP3A4 (unknown origin). The data set is classed as ADME.
Chain of Cytochrome P450 3A4 (P08684 whole entry): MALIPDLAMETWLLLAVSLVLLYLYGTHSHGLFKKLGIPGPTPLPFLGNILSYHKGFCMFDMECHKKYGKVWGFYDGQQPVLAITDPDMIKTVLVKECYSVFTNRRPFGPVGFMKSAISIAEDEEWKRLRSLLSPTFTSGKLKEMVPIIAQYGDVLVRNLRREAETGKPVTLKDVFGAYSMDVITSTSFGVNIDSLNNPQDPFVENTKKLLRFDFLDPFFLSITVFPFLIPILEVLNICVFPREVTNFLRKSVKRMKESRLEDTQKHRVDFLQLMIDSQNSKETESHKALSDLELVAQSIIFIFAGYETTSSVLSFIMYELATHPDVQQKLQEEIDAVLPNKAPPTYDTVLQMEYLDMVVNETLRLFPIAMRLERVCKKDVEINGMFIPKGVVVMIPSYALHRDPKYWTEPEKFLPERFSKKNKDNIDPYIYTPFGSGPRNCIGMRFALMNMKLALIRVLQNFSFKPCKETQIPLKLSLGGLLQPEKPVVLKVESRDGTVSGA
For a further data set, the system named is HepG2. Briefly: Cytotoxicity against human HepG2 cells assessed as reduction in cell viability.
Data set [2] is described as follows: Half life in human liver microsomes. It is filed as ADME, Microsome. A general note: Microsomes from liver hold many membrane-bound enzymes, among them those of drug oxidation.
Data set [3] has as its target T2, Nuclear receptor ROR-beta (Homo sapiens, UniProt Q92753).
T2 sequence (Q92753 whole entry): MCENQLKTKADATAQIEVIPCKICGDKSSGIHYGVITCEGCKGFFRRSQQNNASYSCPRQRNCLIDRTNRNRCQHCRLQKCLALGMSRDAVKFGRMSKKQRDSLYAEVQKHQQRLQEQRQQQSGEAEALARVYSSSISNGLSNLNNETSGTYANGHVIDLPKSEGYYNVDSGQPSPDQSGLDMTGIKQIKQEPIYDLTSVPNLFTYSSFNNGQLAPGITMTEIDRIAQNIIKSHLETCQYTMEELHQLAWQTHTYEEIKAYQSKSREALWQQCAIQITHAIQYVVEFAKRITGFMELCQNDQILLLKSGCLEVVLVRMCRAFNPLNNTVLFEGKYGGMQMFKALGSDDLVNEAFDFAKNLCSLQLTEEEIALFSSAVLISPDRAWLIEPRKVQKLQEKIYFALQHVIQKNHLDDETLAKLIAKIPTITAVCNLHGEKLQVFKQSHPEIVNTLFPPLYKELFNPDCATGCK
The experiment in a line: Inverse agonist activity at Gal4-fused RORbeta (unknown origin).

The nature of data set [4]: Cmax in BALB/c mouse at 4 mg/kg, po. The data set is classed as ADME, organism-based. Details: route oral, dose 4 mg/kg. To be noted: in vivo.
Data set [5] can be described thus: Permeability across apical to basolateral side in human Caco2 cells. The conditions noted are these: Caco-2, read-out: permeability. It is filed as ADME, cell-based. (In general: Passage across Caco-2 layers is used to estimate intestinal permeability.)
The nature of data set [6]: Volume of distribution at steady state in BALB/c mouse at 2 mg/kg, iv. It is filed as ADME, organism-based. The conditions noted are these: in vivo, read-out: Vdss.
The next data set concerns the target Cytochrome P450 2C9 (Homo sapiens, UniProt P11712). The experiment in a line: Inhibition of CYP2C9 (unknown origin). The data set is classed as ADME.
For another data set, the target named is T3, Cytochrome P450 1A2 (Homo sapiens, UniProt P05177).
T3 sequence (P05177 whole entry): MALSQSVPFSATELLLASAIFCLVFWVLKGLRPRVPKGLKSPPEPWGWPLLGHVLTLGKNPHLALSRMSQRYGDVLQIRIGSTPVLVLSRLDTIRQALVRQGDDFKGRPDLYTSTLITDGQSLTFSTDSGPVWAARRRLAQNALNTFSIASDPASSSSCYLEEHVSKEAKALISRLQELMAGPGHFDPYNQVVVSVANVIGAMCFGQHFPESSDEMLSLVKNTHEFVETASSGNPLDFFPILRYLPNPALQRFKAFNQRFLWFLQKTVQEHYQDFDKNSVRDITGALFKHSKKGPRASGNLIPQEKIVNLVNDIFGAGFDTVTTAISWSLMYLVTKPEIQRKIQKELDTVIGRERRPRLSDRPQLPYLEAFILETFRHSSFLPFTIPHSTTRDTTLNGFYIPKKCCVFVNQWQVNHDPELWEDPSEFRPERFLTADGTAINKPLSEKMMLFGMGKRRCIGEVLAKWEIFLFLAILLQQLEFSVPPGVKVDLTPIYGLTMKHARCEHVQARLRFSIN
Briefly: Inhibition of CYP1A2 (unknown origin). It is filed as ADME.

Another data set deals with T4, Cytochrome P450 2C8 (Homo sapiens, UniProt P10632).
T4 sequence (P10632 whole entry): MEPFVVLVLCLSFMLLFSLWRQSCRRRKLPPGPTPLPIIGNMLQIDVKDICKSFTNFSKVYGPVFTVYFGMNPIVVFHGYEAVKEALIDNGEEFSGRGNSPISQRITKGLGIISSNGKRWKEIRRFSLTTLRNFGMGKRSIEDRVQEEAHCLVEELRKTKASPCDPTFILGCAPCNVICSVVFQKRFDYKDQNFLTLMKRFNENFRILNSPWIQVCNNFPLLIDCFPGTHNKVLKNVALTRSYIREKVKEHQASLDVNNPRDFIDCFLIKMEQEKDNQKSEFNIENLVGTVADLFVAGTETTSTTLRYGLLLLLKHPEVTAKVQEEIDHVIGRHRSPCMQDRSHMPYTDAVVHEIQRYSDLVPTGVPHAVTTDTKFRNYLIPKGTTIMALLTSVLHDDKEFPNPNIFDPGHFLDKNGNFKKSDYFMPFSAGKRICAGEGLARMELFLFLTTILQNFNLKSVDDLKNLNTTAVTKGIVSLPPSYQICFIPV
The experiment in a line: Inhibition of CYP2C8 (unknown origin). The data set is classed as ADME.

Data set [7] is described as follows: Oral bioavailability in BALB/c mouse at 4 mg/kg. The data set is classed as ADME, organism-based. The conditions noted are these: in vivo.
Data set [8] can be described thus: AUC in BALB/c mouse at 4 mg/kg, po. The data set is classed as ADME, organism-based. Details: dose 4 mg/kg. To be noted: in vivo.
Data set [9] in a line: AUC in BALB/c mouse at 2 mg/kg, iv measured upto 72 hrs. It is filed as ADME, organism-based. Details: route intravenous, dose 2 mg/kg, time <=72. The conditions noted are these: in vivo.
The nature of data set [10]: Half life in mouse liver microsomes. The data set is classed as ADME, Microsome.
The nature of data set [11]: Kinetic solubility of compound in 0.1 N HCK solvent at pH 1. To be noted: 0.1 N HCl (printed 0.1 N HCK), read-out: Kinetic_solubility. It is filed as physicochemical.

The structures appear in SMILES notation.

Chain of Cytochrome P450 2C9 (P11712 whole entry): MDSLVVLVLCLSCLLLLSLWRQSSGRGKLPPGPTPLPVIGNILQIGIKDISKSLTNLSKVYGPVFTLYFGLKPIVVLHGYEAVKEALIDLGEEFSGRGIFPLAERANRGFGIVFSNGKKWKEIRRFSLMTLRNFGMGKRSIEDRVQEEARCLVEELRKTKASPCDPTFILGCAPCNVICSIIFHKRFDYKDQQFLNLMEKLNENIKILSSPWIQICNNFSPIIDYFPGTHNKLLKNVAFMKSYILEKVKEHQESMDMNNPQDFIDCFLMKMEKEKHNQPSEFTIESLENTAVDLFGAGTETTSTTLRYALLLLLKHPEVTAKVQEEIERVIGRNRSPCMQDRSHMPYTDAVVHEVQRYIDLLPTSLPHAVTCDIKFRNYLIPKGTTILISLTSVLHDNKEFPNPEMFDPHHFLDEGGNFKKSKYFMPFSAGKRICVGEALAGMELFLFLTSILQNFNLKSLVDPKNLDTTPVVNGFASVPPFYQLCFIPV

As usually defined, the EC50 is the concentration giving half of the maximal effect. Broadly, the IC50 is the point on the concentration scale where inhibition reaches its midpoint. What is called half-life is how long it takes for the measured level to halve. High values mean slow loss, low ones fast loss. A word on the Cmax: it is the maximum level reached in the sampled fluid or tissue. Usually bioavailability stands for dose-corrected exposure relative to a reference, in per cent. A lower bioavailability goes with little systemic uptake. Broadly, the AUC is concentration integrated over time. Take `CC(C)(O)CN1C(=O)[C@H](F)C[C@H]1C(=O)N1CC[C@@]2(S(=O)(=O)c3ccc(F)cc3)c3ccc(C(F)(C(F)(F)F)C(F)(F)F)cc3CC[C@@H]12`: the EC50 was over 7.5 µM in data set [1], over 100 µM in the data set with HepG2 and 8.4 µM in data set [3]. Further, the half-maximal inhibitory concentration (IC50) is over 20 µM at Cytochrome P450 3A4, 4.9 µM against Cytochrome P450 2C9, over 20 µM against Cytochrome P450 1A2 and over 20 µM against Cytochrome P450 2C8. The half-life in data set [2] and in data set [10] was over 2 h throughout. This compound had a Cmax in [4] of 2200 nM. In data set [5], the Papp A→B came out at 9.3 ×10⁻⁶ cm/s. Also, the Vd in data set [6] amounted to 2.7 L/kg. Also, in [7], the bioavailability amounted to 94%. Moreover, in data set [8], the AUC came out at 44.4 µM·h. The AUC at 72 h in [9] was determined as 23 µM·h. Besides, in [11], the solubility kinetic was under 1 µg/mL.
